Source: PubChem BioAssay AID2060905 (Molecular Pharmacology Branch, DTP, NCI, 2025)

Tested on: 282377-053-R-J1-PDC complex spheroid viability
Test: Anticancer human tumor 282377-053-R-J1-PDC patient-derived colon adenocarcinoma cell line growth inhibition [RAS]
Settings: for IC50: curve of first compound; for viability, T/C: stronger effect = lower value
In short: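 Agents were tested in combination matrices in half-log decrements from a top concentration at or near clinical Cmax (10 microM if undetermined). Targets were multi-cell spheroids of tumour lines plus HUVEC and MSC stromal cells.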
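Note: spheroids exposed to agents for seven days before readout.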
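Throughout, for viability, T/C: luminescence viability as percent of DMSO vehicle control wells.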

Cc1nc(N2CCC3(CC2)COC(C)C3N)c(CO)nc1Sc1ccnc(N)c1Cl (configuration not stated) + CCn1c(-c2cccnc2C(C)OC)c2c3cc(ccc31)N1CCOC(CC(NC(=O)C(C(C)C)N(C)C(=O)C3(F)CCN(C(=O)C#CC(C)(C)N(C)C)CC3)C(=O)N3CCCC(N3)C(=O)OCC(C)(C)C2)C1
IC50 (second compound 0.000949 µM): > 10 µM | IC50 (second compound 0.003 µM): > 10 µM | IC50 (second compound 0.00949 µM): > 10 µM | IC50 (second compound 0.03 µM): > 10 µM | IC50 (second compound 0.0949 µM): > 10 µM | IC50 (second compound 0.3 µM): > 10 µM | viability, T/C (second compound 0.000949 µM, first compound 0.0316 µM): 81% | viability, T/C (second compound 0.000949 µM, first compound 0.1 µM): 93.8% | viability, T/C (second compound 0.000949 µM, first compound 0.316 µM): 89.8% | viability, T/C (second compound 0.000949 µM, first compound 1 µM): 94.2% | viability, T/C (second compound 0.000949 µM, first compound 3.16 µM): 81.8% | viability, T/C (second compound 0.000949 µM, first compound 10 µM): 80.6% | viability, T/C (second compound 0.003 µM, first compound 0.0316 µM): 85.8% | viability, T/C (second compound 0.003 µM, first compound 0.1 µM): 115% | viability, T/C (second compound 0.003 µM, first compound 0.316 µM): 101% | viability, T/C (second compound 0.003 µM, first compound 1 µM): 85.8% | viability, T/C (second compound 0.003 µM, first compound 3.16 µM): 82.1% | viability, T/C (second compound 0.003 µM, first compound 10 µM): 75.1% | viability, T/C (second compound 0.00949 µM, first compound 0.0316 µM): 111% | viability, T/C (second compound 0.00949 µM, first compound 0.1 µM): 85.1% | viability, T/C (second compound 0.00949 µM, first compound 0.316 µM): 89.2% | viability, T/C (second compound 0.00949 µM, first compound 1 µM): 99.7% | viability, T/C (second compound 0.00949 µM, first compound 3.16 µM): 99.5% | viability, T/C (second compound 0.00949 µM, first compound 10 µM): 110% | viability, T/C (second compound 0.03 µM, first compound 0.0316 µM): 101% | viability, T/C (second compound 0.03 µM, first compound 0.1 µM): 83.8% | viability, T/C (second compound 0.03 µM, first compound 0.316 µM): 102% | viability, T/C (second compound 0.03 µM, first compound 1 µM): 87% | viability, T/C (second compound 0.03 µM, first compound 3.16 µM): 84.4% | viability, T/C (second compound 0.03 µM, first compound 10 µM): 83.4% | viability, T/C (second compound 0.0949 µM, first compound 0.0316 µM): 88.9% | viability, T/C (second compound 0.0949 µM, first compound 0.1 µM): 96.2% | viability, T/C (second compound 0.0949 µM, first compound 0.316 µM): 108% | viability, T/C (second compound 0.0949 µM, first compound 1 µM): 103% | viability, T/C (second compound 0.0949 µM, first compound 3.16 µM): 95.5% | viability, T/C (second compound 0.0949 µM, first compound 10 µM): 105% | viability, T/C (second compound 0.3 µM, first compound 0.0316 µM): 87.6% | viability, T/C (second compound 0.3 µM, first compound 0.1 µM): 103% | viability, T/C (second compound 0.3 µM, first compound 0.316 µM): 93% | viability, T/C (second compound 0.3 µM, first compound 1 µM): 100% | viability, T/C (second compound 0.3 µM, first compound 3.16 µM): 90% | viability, T/C (second compound 0.3 µM, first compound 10 µM): 119%
